Source: US20250345392A1, “ANNEXIN A1 LIQUID PHARMACEUTICAL COMPOSITION” (ResoTher Pharma A/S, priority 2022, published 2025)
Like-named read-outs stand apart in the source and are kept apart here. Ends that are not written are not given here.

Assay: 14-day repeat dose IV toxicity study with toxicokinetic evaluation on Day 1 and Day 14 in rats
Format: in vivo, Wistar rats
Details: rat, in vivo, iv
Method: Peptide 1 in blood samples collected from animals used in the studies (rat and dog) has been measured by an LC-MS/MS method. Analysis of samples collected in the pharmacokinetic study in rats was performed prior to validation of the method. Prior to analysis of samples from the GLP toxicology studies, the method was validated according to GLP to ensure that it is selective, accurate, reproducible, and able to produce reliable results. The method was validated over the range from 0.075 to 25 μg/mL Peptide 1.
In the 14-day intravenous toxicity study in Wistar rats (see study description below), samples were collected from 3 male and 3 female animals per group dosed at 0 (Control), 1, 3 or 10 mg/kg/day at 2, 5, 10, 20 and 40 minutes after dosing on Days 1 and 14. Samples were analysed for levels of Peptide 1.

[1] = 1 mg/kg/day, IV 1.0 mg/kg/day, male, Day 1
[2] = 1 mg/kg/day, IV 1.0 mg/kg/day, male, Day 14
[3] = 3 mg/kg/day, IV 3.0 mg/kg/day, female, Day 1
[4] = 3 mg/kg/day, IV 3.0 mg/kg/day, female, Day 14
[5] = 3 mg/kg/day, IV 3.0 mg/kg/day, male, Day 1
[6] = 3 mg/kg/day, IV 3.0 mg/kg/day, male, Day 14
[7] = 10 mg/kg/day, IV 10 mg/kg/day, female, Day 1
[8] = 10 mg/kg/day, IV 10 mg/kg/day, female, Day 14
[9] = 10 mg/kg/day, IV 10 mg/kg/day, male, Day 1
[10] = 10 mg/kg/day, IV 10 mg/kg/day, male, Day 14

## AMVSEFLKQAWFIENEEQEYVQTLKSSKGGPGSAVSPYPTFNPSSDV-NH2 [Peptide 1]
[1]
  C0: 9960 ng/mL
  clearance: 18 mL/min/kg
1 mg/kg/day, IV 1.0 mg/kg/day, male, Day 1, read-out: AUC0-∞ (converted)
  AUC(0-inf): 927 ng·h/mL
1 mg/kg/day, IV 1.0 mg/kg/day, male, Day 1, read-out: T1/2
  half-life: 8.4 min
1 mg/kg/day, IV 1.0 mg/kg/day, male, Day 1, read-out: Vz
  Vd: 0.218 L/kg
[2]
  C0: 10300 ng/mL
  clearance: 17.2 mL/min/kg
1 mg/kg/day, IV 1.0 mg/kg/day, male, Day 14, read-out: AUC0-∞ (converted)
  AUC(0-inf): 967 ng·h/mL
1 mg/kg/day, IV 1.0 mg/kg/day, male, Day 14, read-out: T1/2
  half-life: 7.66 min
1 mg/kg/day, IV 1.0 mg/kg/day, male, Day 14, read-out: Vz
  Vd: 0.19 L/kg
[3]
  C0: 30600 ng/mL
  clearance: 17.4 mL/min/kg
3 mg/kg/day, IV 3.0 mg/kg/day, female, Day 1, read-out: AUC0-∞ (converted)
  AUC(0-inf): 2870 ng·h/mL
3 mg/kg/day, IV 3.0 mg/kg/day, female, Day 1, read-out: T1/2
  half-life: 8 min
3 mg/kg/day, IV 3.0 mg/kg/day, female, Day 1, read-out: Vz
  Vd: 0.201 L/kg
[4]
  C0: 41900 ng/mL
  clearance: 14.8 mL/min/kg
3 mg/kg/day, IV 3.0 mg/kg/day, female, Day 14, read-out: AUC0-∞ (converted)
  AUC(0-inf): 3380 ng·h/mL
3 mg/kg/day, IV 3.0 mg/kg/day, female, Day 14, read-out: T1/2
  half-life: 6.85 min
3 mg/kg/day, IV 3.0 mg/kg/day, female, Day 14, read-out: Vz
  Vd: 0.146 L/kg
[5]
  C0: 23000 ng/mL
  clearance: 21.9 mL/min/kg
3 mg/kg/day, IV 3.0 mg/kg/day, male, Day 1, read-out: AUC0-∞ (converted)
  AUC(0-inf): 2280 ng·h/mL
3 mg/kg/day, IV 3.0 mg/kg/day, male, Day 1, read-out: T1/2
  half-life: 7 min
3 mg/kg/day, IV 3.0 mg/kg/day, male, Day 1, read-out: Vz
  Vd: 0.221 L/kg
[6]
  C0: 36700 ng/mL
  clearance: 18.7 mL/min/kg
3 mg/kg/day, IV 3.0 mg/kg/day, male, Day 14, read-out: AUC0-∞ (converted)
  AUC(0-inf): 2680 ng·h/mL
3 mg/kg/day, IV 3.0 mg/kg/day, male, Day 14, read-out: T1/2
  half-life: 6.67 min
3 mg/kg/day, IV 3.0 mg/kg/day, male, Day 14, read-out: Vz
  Vd: 0.18 L/kg
[7]
  C0: 127000 ng/mL
  clearance: 17.4 mL/min/kg
10 mg/kg/day, IV 10 mg/kg/day, female, Day 1, read-out: AUC0-∞ (converted)
  AUC(0-inf): 9570 ng·h/mL
10 mg/kg/day, IV 10 mg/kg/day, female, Day 1, read-out: T1/2
  half-life: 7.16 min
10 mg/kg/day, IV 10 mg/kg/day, female, Day 1, read-out: Vz
  Vd: 0.18 L/kg
[8]
  C0: 138000 ng/mL
  clearance: 16.5 mL/min/kg
10 mg/kg/day, IV 10 mg/kg/day, female, Day 14, read-out: AUC0-∞ (converted)
  AUC(0-inf): 10100 ng·h/mL
10 mg/kg/day, IV 10 mg/kg/day, female, Day 14, read-out: T1/2
  half-life: 7.04 min
10 mg/kg/day, IV 10 mg/kg/day, female, Day 14, read-out: Vz
  Vd: 0.168 L/kg
[9]
  C0: 104000 ng/mL
  clearance: 18.1 mL/min/kg
10 mg/kg/day, IV 10 mg/kg/day, male, Day 1, read-out: AUC0-∞ (converted)
  AUC(0-inf): 9200 ng·h/mL
10 mg/kg/day, IV 10 mg/kg/day, male, Day 1, read-out: T1/2
  half-life: 7.8 min
10 mg/kg/day, IV 10 mg/kg/day, male, Day 1, read-out: Vz
  Vd: 0.204 L/kg
[10]
  C0: 92300 ng/mL
  clearance: 18.2 mL/min/kg
10 mg/kg/day, IV 10 mg/kg/day, male, Day 14, read-out: AUC0-∞ (converted)
  AUC(0-inf): 9130 ng·h/mL
10 mg/kg/day, IV 10 mg/kg/day, male, Day 14, read-out: T1/2
  half-life: 7.31 min
10 mg/kg/day, IV 10 mg/kg/day, male, Day 14, read-out: Vz
  Vd: 0.192 L/kg
